Patent publication US4016159A, “Acylamino-cephem-carboxylic acids containing an amidino or guanidino group in the molecule” (Hoechst Aktiengesellschaft, priority 1973, dated 1977)
≈ marks a conversion by molar mass, not a printed value. Like-named read-outs stand apart in the source and are kept apart here.

Experiments:
Type in all cases: cell-based
[1] = test system: Staphylococcus aureus 285; experiment: Minimum inhibition concentration (MIC), Table 1; details: Staphylococcus aureus, 285, Germ: Staphylococcus aureus 285; read-out: Minimum inhibition concentration (MIC)
Source text: (§1) Minimum inhibition concentration (MIC) in γ/ml
Germ: Staphylococcus aureus 285

[2] = test system: Proteus mirabilis; experiment: Minimum inhibition concentration (MIC), Table 2; details: read-out: Minimum inhibition concentration (MIC)
Source text: Minimum inhibition concentration (MIC) in /ml

[3] = test system: Streptococcus pyogenes A; experiment: Minimum inhibition concentration (MIC), Table 3; details: read-out: Minimum inhibition concentration MIC
Source text: Minimum inhibition concentration MIC in γ/ml
Germ: Streptococcus pyogenes A

[4] = test system: Streptococcus D; experiment: Minimum inhibition concentration (MIC), Table 4; details: Streptococcus, read-out: Minimum inhibition concentration (MIC)
Source text: as §1

[5] = test system: Staphylococcus aureus SG 511; experiment: Minimum inhibition concentration (MIC), Table 5; details: Staphylococcus aureus
Source text: as §1
Germ: Staphylococcus aureus SG 511

[6] = SG511, Germ: Staphylococcus aureus SG 511, read-out: Minimum inhibition concentration (MIC)
[7] = SG511, read-out: Minimum inhibition concentration (MIC)

| SMILES | MIC [1] [µg/mL] | MIC ([2]; Germ: Proteus mirabilis) [µg/mL] | MIC ([3]; Germ: Streptococcus pyogenes A) [µg/mL] | MIC ([4]; Germ: Streptococcus D) [µg/mL] | MIC [5, 6] [µg/mL] | MIC ([2]; Proteus mirabilis) [µg/mL] | MIC ([3]; Streptococcus pyogenes) [µg/mL] | MIC [4] [µg/mL] | MIC [5, 7] [µg/mL] |
| --- | --- | --- | --- | --- | --- | --- | --- | --- | --- |
| CC(=O)OCC1=C(C(=O)O)N2C(=O)[C@@H](NC(=O)Cc3cccs3)[C@H]2SC1 [Cephalotin-Na, reference compound] | – | – | – | – | – | 12.5 (≈ 31.5 µM) | 0.05 (≈ 0.126 µM) | 78.5 (≈ 198 µM) | 0.13 (≈ 0.328 µM) |
| N=C(N)c1ccc(CC(=O)NC2C(=O)N3C(C(=O)O)=C(CSc4nncs4)CSC23)cc1 (centres unmarked) [Example 1, 3-[(1,3,4-thiadiazole-2-yl)-thiomethyl]-7-(4-amidino-phenylacetamido)-Δ3-cephem-4-carboxylic acid] | 0.156 to 0.391 (≈ 0.318 to 0.797 µM) | 3.1 to 12.5 (≈ 6.32 to 25.5 µM) | 0.000391 to 0.0078 (≈ 0.000797 to 0.0159 µM) | 10 to 50 (≈ 20.4 to 102 µM) | 0.0196 to 0.0391 (≈ 0.04 to 0.0797 µM) | – | – | – | – |
| Cc1nnc(SCC2=C(C(=O)O)N3C(=O)[C@@H](NC(=O)Cn4cnnn4)[C@H]3SC2)s1 [Cephazolin-Na, reference compound] | – | 25 (≈ 55 µM) | 0.03 (≈ 0.066 µM) | – | 0.25 (≈ 0.55 µM) | – | – | – | – |
| N=C(N)c1ccc(CC(=O)NC2C(=O)N3C(C(=O)O)=C(CSc4nncs4)CSC23)s1 (centres unmarked) [Example 3, 3-[(1,3,4-thiadiazole-2-yl)-thiomethyl]-7-(5-amidinothienyl-acetamido)-Δ3-cephem-4-ccarboxylic acid] | 0.156 to 0.391 (≈ 0.314 to 0.787 µM) | 3.1 to 12.5 (≈ 6.24 to 25.2 µM) | 0.008 to 0.0156 (≈ 0.0161 to 0.0314 µM) | 10 to 50 (≈ 20.1 to 101 µM) | 0.0625 to 0.078 (≈ 0.126 to 0.157 µM) | – | – | – | – |
| CC1=C(C(=O)O)N2C(=O)[C@@H](NC(=O)[C@H](N)c3ccccc3)[C@H]2SC1 [Cephalexin, reference compound] | – | – | – | – | – | 25 (≈ 72 µM) | 0.156 (≈ 0.449 µM) | 100 (≈ 288 µM) | 1.25 (≈ 3.6 µM) |
| N=C(N)c1ccc(CC(=O)NC2C(=O)N3C(C(=O)O)=C(CSc4nccs4)CSC23)cc1 (centres unmarked) [Example 4, 3-[(thiazole-2-yl)-thiomethyl]-7-(4-amidino-phenylacetamido)-Δ3-cephem-4-carboxylic acid] | 0.156 to 0.391 (≈ 0.319 to 0.799 µM) | 25 (≈ 51.1 µM) | 0.000391 to 0.0078 (≈ 0.000799 to 0.0159 µM) | 10 to 50 (≈ 20.4 to 102 µM) | 0.0196 to 0.0391 (≈ 0.04 to 0.0799 µM) | – | – | – | – |
| Cc1nnc(SCC2=C(C(=O)O)N3C(=O)C(NC(=O)Cc4ccc(C(=N)N)s4)C3SC2)s1 (centres unmarked) [Example 2, 3-[(5-methyl-1,3,4-thiadiazole-2-yl)-thiomethyl]-7-(5-amidinothienylacetamido)-Δ-3-cephem-4-carboxylic acid] | 0.156 to 0.391 (≈ 0.305 to 0.766 µM) | 25 (≈ 49 µM) | 0.008 to 0.0156 (≈ 0.0157 to 0.0305 µM) | 10 to 50 (≈ 19.6 to 97.9 µM) | – | – | – | – | – |

Continued, in another order:

| MIC [1] [µg/mL] | MIC ([2]; Germ: Proteus mirabilis) [µg/mL] | MIC ([3]; Germ: Streptococcus pyogenes A) [µg/mL] | MIC ([4]; Germ: Streptococcus D) [µg/mL] | MIC [5, 6] [µg/mL] | SMILES | MIC ([2]; Proteus mirabilis) [µg/mL] | MIC ([3]; Streptococcus pyogenes) [µg/mL] | MIC [4] [µg/mL] | MIC [5, 7] [µg/mL] |
| --- | --- | --- | --- | --- | --- | --- | --- | --- | --- |
| 0.156 to 0.391 (≈ 0.3 to 0.752 µM) | 3.1 to 12.5 (≈ 5.97 to 24.1 µM) | 0.008 to 0.0156 (≈ 0.0154 to 0.03 µM) | 10 to 50 (≈ 19.2 to 96.2 µM) | 0.0196 to 0.0391 (≈ 0.0377 to 0.0752 µM) | Cc1nnc(SCC2=C(C(=O)O)N3C(=O)C(NC(=O)Cc4ccc(NC(=N)N)cc4)C3SC2)s1 (centres unmarked) [Example 6, 3-[(5-methyl-1,3,4-thiadiazole-2-yl)-thiomethyl]-7-(4-guanidino-phenylacetamido)-Δ3-cephem-4-carboxylic acid] | – | – | – | – |
| 0.156 to 0.391 (≈ 0.302 to 0.757 µM) | 3.1 to 12.5 (≈ 6 to 24.2 µM) | 0.000391 to 0.0078 (≈ 0.000757 to 0.0151 µM) | 0.196 to 6.25 (≈ 0.379 to 12.1 µM) | 0.0625 to 0.078 (≈ 0.121 to 0.151 µM) | O=C(Cc1ccc(C2=NCCN2)cc1)NC1C(=O)N2C(C(=O)O)=C(CSc3nncs3)CSC12 (centres unmarked) [Example 70, 3-[(1,3,4-thiadiazole-2-yl)-thiomethyl]-7-[4-(imidazoline-2-yl)phenylacetamido]-Δ 3-cephem-4-carboxylic acid] | – | – | – | – |
| 0.156 to 0.391 (≈ 0.293 to 0.734 µM) | 3.1 to 12.5 (≈ 5.82 to 23.5 µM) | 0.000391 to 0.0078 (≈ 0.000734 to 0.0146 µM) | 10 to 50 (≈ 18.8 to 93.9 µM) | 0.0196 to 0.0391 (≈ 0.0368 to 0.0734 µM) | CCCc1nnc(SCC2=C(C(=O)O)N3C(=O)C(NC(=O)Cc4ccc(C(=N)N)cc4)C3SC2)s1 (centres unmarked) [Example 58, 3-[(5-n-propyl-1,3,4-thiadiazole-2-yl)-thiomethyl]-7-(4-amidinophenylacetamido)-Δ 3-cephem-4-carboxylic acid] | – | – | – | – |
| 0.156 to 0.391 (≈ 0.286 to 0.718 µM) | 3.1 to 12.5 (≈ 5.69 to 22.9 µM) | 0.000391 to 0.0078 (≈ 0.000718 to 0.0143 µM) | 10 to 50 (≈ 18.4 to 91.8 µM) | 0.0196 to 0.0391 (≈ 0.036 to 0.0718 µM) | CCc1nnc(SCC2=C(C(=O)O)N3C(=O)C(NC(=O)Cc4ccc(C5=NCCN5)cc4)C3SC2)s1 (centres unmarked) [Example 120] | – | – | – | – |
| 0.156 to 0.391 (≈ 0.279 to 0.7 µM) | 25 (≈ 44.7 µM) | 0.000391 to 0.0078 (≈ 0.0007 to 0.014 µM) | 10 to 50 (≈ 17.9 to 89.5 µM) | 0.0196 to 0.0391 (≈ 0.0351 to 0.07 µM) | CCc1nnc(SCC2=C(C(=O)O)N3C(=O)C(NC(=O)Cc4ccc(C5=NCCCN5)cc4)C3SC2)s1 (centres unmarked) [Example 121, 3-[(5-ethyl-1,3,4-thiadiazole-2-yl)-thiomethyl]-7-[4-(1,4,5,6-tetrahydropyrimide-2-yl)-phenylacetamido]-Δ3-cephem-4-carboxylic acid] | – | – | – | – |
| 0.156 to 0.391 (≈ 0.285 to 0.715 µM) | 25 (≈ 45.7 µM) | 0.000391 to 0.0078 (≈ 0.000715 to 0.0143 µM) | 10 to 50 (≈ 18.3 to 91.5 µM) | 0.0625 to 0.078 (≈ 0.114 to 0.143 µM) | CCCCc1nnc(SCC2=C(C(=O)O)N3C(=O)C(NC(=O)Cc4ccc(C(=N)N)cc4)C3SC2)s1 (centres unmarked) [Example 55, 3-[(5-n-butyl-1,3,4-thiadiazole-2-yl)-thiomethyl]-7-(4-amidinophenylacetamido)-Δ 3-cephem-4-carboxylic acid] | – | – | – | – |
| 0.5 to 1.25 (≈ 0.989 to 2.47 µM) | 25 (≈ 49.4 µM) | 0.000391 to 0.0078 (≈ 0.000773 to 0.0154 µM) | 10 to 50 (≈ 19.8 to 98.9 µM) | 0.0196 to 0.0391 (≈ 0.0388 to 0.0773 µM) | N=C(N)Nc1ccc(CC(=O)NC2C(=O)N3C(C(=O)O)=C(CSc4nncs4)CSC23)cc1 (centres unmarked) [Example 9, 3-[(1,3,4-thiadiazole-2-yl)-thiomethyl]-7-(4-guanidino-phenylacetamido)-Δ3-cephem-4-carboxylic acid] | – | – | – | – |
| 0.156 to 0.391 (≈ 0.276 to 0.691 µM) | 25 (≈ 44.2 µM) | 0.000391 to 0.0078 (≈ 0.000691 to 0.0138 µM) | 0.196 to 6.25 (≈ 0.346 to 11 µM) | 0.0625 to 0.078 (≈ 0.11 to 0.138 µM) | O=C(Cc1ccc(C2=NCCN2)cc1)NC1C(=O)N2C(C(=O)O)=C(CSc3nc4ccccc4s3)CSC12 (centres unmarked) [Example 118, 3-[(benzothiazole-2-yl)-thiomethyl]-7-[4-(imidazoline-2-yl)-phenylacetamido]-Δ3-cephem-4-carboxylic acid] | – | – | – | – |
| 0.5 to 1.25 (≈ 0.895 to 2.24 µM) | 25 (≈ 44.7 µM) | 0.000391 to 0.0078 (≈ 0.0007 to 0.014 µM) | 0.196 to 6.25 (≈ 0.351 to 11.2 µM) | 0.0625 to 0.078 (≈ 0.112 to 0.14 µM) | CCCc1nnc(SCC2=C(C(=O)O)N3C(=O)C(NC(=O)Cc4ccc(C5=NCCN5)cc4)C3SC2)s1 (centres unmarked) [Example 53] | – | – | – | – |
| 0.5 to 1.25 (≈ 1.02 to 2.56 µM) | 3.1 to 12.5 (≈ 6.35 to 25.6 µM) | 0.000391 to 0.0078 (≈ 0.0008 to 0.016 µM) | 10 to 50 (≈ 20.5 to 102 µM) | 0.0625 to 0.078 (≈ 0.128 to 0.16 µM) | Cc1nnc(SCC2=C(C(=O)O)N3C(=O)C(NC(=O)Cc4ccc(C(=N)N)cc4)C3SC2)o1 (centres unmarked) [Example 60, 3-[(5-methyl-1,3,4-oxadiazole-2-yl)-thiomethyl]-7-(4-amidinophenylacetamido)-Δ 3-cephem-4-carboxylic acid] | – | – | – | – |
